Test: xn = mol fraction of the nth substance listed
Details: Liquid, Vibrating tube method

CN(C)C=O [dimethylformamide] + O=C=O
Details | mass density [kg/m3]
323.1 K, 12012 kPa, x2 = 0.4502 | 948.99
323.1 K, 12998 kPa, x2 = 0.4068 | 949.23
323.1 K, 13022 kPa, x2 = 0.4502 | 950.22
323.1 K, 13979 kPa, x2 = 0.4068 | 950.27
323.1 K, 14010 kPa, x2 = 0.4502 | 951.35
323.1 K, 15004 kPa, x2 = 0.4068 | 951.37
323.1 K, 15007 kPa, x2 = 0.4502 | 952.52
323.1 K, 16001 kPa, x2 = 0.4068 | 952.41
323.1 K, 16010 kPa, x2 = 0.4502 | 953.67
323.1 K, 16989 kPa, x2 = 0.4068 | 953.45
323.1 K, 17008 kPa, x2 = 0.4502 | 954.76
323.1 K, 18013 kPa, x2 = 0.4502 | 955.9
323.1 K, 18017 kPa, x2 = 0.4068 | 954.51
323.1 K, 18998 kPa, x2 = 0.4068 | 955.51
323.1 K, 19001 kPa, x2 = 0.4502 | 956.99
323.1 K, 19996 kPa, x2 = 0.4502 | 958.07
323.1 K, 20005 kPa, x2 = 0.4068 | 956.52
323.1 K, 20986 kPa, x2 = 0.4068 | 957.5
323.1 K, 21010 kPa, x2 = 0.4502 | 959.2
323.1 K, 22004 kPa, x2 = 0.4502 | 960.27
323.1 K, 22021 kPa, x2 = 0.4068 | 958.56
323.1 K, 22997 kPa, x2 = 0.4502 | 961.32
323.1 K, 22998 kPa, x2 = 0.4068 | 959.49
323.1 K, 23987 kPa, x2 = 0.4068 | 960.47
323.1 K, 23995 kPa, x2 = 0.4502 | 962.39
323.1 K, 25019 kPa, x2 = 0.4502 | 963.43
323.1 K, 25057 kPa, x2 = 0.4068 | 961.5
323.15 K, 5022 kPa, x2 = 0.2876 | 937.32
323.15 K, 6019 kPa, x2 = 0.2876 | 938.29
323.15 K, 7007 kPa, x2 = 0.2876 | 939.23
323.15 K, 8008 kPa, x2 = 0.2876 | 940.16
323.15 K, 9023 kPa, x2 = 0.2876 | 941.14
323.15 K, 10001 kPa, x2 = 0.2876 | 942.04
323.15 K, 11006 kPa, x2 = 0.2876 | 942.98
323.15 K, 12003 kPa, x2 = 0.2876 | 943.9
323.15 K, 13004 kPa, x2 = 0.2876 | 944.81
323.15 K, 14005 kPa, x2 = 0.2876 | 945.73
323.15 K, 14999 kPa, x2 = 0.2876 | 946.61
323.15 K, 15994 kPa, x2 = 0.2876 | 947.48
323.15 K, 17022 kPa, x2 = 0.2876 | 948.41
323.15 K, 17996 kPa, x2 = 0.2876 | 949.25
323.15 K, 19004 kPa, x2 = 0.2876 | 950.13
323.15 K, 20021 kPa, x2 = 0.2876 | 950.99
323.15 K, 21018 kPa, x2 = 0.2876 | 951.84
323.15 K, 22030 kPa, x2 = 0.2876 | 952.68
323.15 K, 23007 kPa, x2 = 0.2876 | 953.51
323.15 K, 24019 kPa, x2 = 0.2876 | 954.35
323.15 K, 25012 kPa, x2 = 0.2876 | 955.16
332.96 K, 10005 kPa, x2 = 0.6235 | 907.82
332.96 K, 10991 kPa, x2 = 0.6235 | 910.93
332.96 K, 12056 kPa, x2 = 0.6235 | 913.98
332.96 K, 13000 kPa, x2 = 0.6235 | 916.59
332.96 K, 14042 kPa, x2 = 0.6235 | 919.37
332.96 K, 15010 kPa, x2 = 0.6235 | 921.91
332.96 K, 15997 kPa, x2 = 0.6235 | 924.4
332.96 K, 17030 kPa, x2 = 0.6235 | 926.91
332.96 K, 18038 kPa, x2 = 0.6235 | 929.31
332.96 K, 19028 kPa, x2 = 0.6235 | 931.63
332.96 K, 20027 kPa, x2 = 0.6235 | 933.85
332.96 K, 21009 kPa, x2 = 0.6235 | 936.05
332.96 K, 22009 kPa, x2 = 0.6235 | 938.17
332.96 K, 23042 kPa, x2 = 0.6235 | 940.35
332.96 K, 24041 kPa, x2 = 0.6235 | 942.44
332.96 K, 25008 kPa, x2 = 0.6235 | 944.38
332.97 K, 13046 kPa, x2 = 0.8091 | 858.28
332.97 K, 14016 kPa, x2 = 0.8091 | 863.75
332.97 K, 15002 kPa, x2 = 0.8091 | 869.06
332.97 K, 16027 kPa, x2 = 0.8091 | 874.28
332.97 K, 17017 kPa, x2 = 0.8091 | 879.06
332.97 K, 18042 kPa, x2 = 0.8091 | 883.74
332.97 K, 19003 kPa, x2 = 0.8091 | 887.97
332.97 K, 20021 kPa, x2 = 0.8091 | 892.23
332.97 K, 21029 kPa, x2 = 0.8091 | 896.31
332.97 K, 22019 kPa, x2 = 0.8091 | 900.16
332.97 K, 23004 kPa, x2 = 0.8091 | 903.83
332.97 K, 24041 kPa, x2 = 0.8091 | 907.6
332.97 K, 24998 kPa, x2 = 0.8091 | 910.97
332.98 K, 8015 kPa, x2 = 0.4268 | 929.54
332.98 K, 9023 kPa, x2 = 0.4268 | 930.86
332.98 K, 9996 kPa, x2 = 0.4268 | 932.09
332.98 K, 11004 kPa, x2 = 0.4268 | 933.37
332.98 K, 12004 kPa, x2 = 0.4268 | 934.65
332.98 K, 13005 kPa, x2 = 0.4268 | 935.88
332.98 K, 13019 kPa, x2 = 0.9311 | 744.38

From the NIST ThermoML archive (doi:10.1021/je050050p)
